According to patent US20060241172A1, “Benzodioxane and benzodioxolane derivatives and uses thereof” (Wyeth, priority 2005, published 2006):

Columns and labels:
human 5-HT2C receptor = target: T1, human 5-HT2C receptor (Homo sapiens, UniProt P28335); assay: 5-HT2C receptor-stimulated calcium mobilization (FLIPR) in CHO cells; format: cell-based; conditions: for Emax: CHO, read-out: 5-HT2C Function EMax (%); for EC50: read-out: 5-HT2C Function EC50
T1 sequence (P28335 33-458): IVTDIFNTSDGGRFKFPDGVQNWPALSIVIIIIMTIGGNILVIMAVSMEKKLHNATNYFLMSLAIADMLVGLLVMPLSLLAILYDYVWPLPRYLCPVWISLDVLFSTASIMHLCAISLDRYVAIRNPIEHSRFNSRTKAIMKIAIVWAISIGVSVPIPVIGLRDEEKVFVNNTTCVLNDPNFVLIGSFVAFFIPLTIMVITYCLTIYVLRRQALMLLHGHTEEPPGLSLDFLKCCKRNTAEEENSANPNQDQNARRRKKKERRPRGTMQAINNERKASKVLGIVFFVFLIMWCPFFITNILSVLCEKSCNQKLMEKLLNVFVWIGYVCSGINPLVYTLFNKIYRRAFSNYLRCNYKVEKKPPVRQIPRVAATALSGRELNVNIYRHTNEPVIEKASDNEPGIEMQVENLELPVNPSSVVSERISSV

[1] = system: male C57BL/6J mice and lean Zucker rats; assay: Obesity Model A: acute food intake after overnight fast, oral dosing; format: in vivo
Procedure: To evaluate acute in vivo efficacy of various compounds, 7 weeks-old male C57BL/6J mice were obtained from The Jackson Laboratory (Bar Harbor, Me.) and 6 weeks-old lean Zucker rats were purchased from Charles River Laboratories (Wilmington, Mass.). Mice and rats were single housed in a temperature-controlled (25° C.) facility with a 12-h light/dark cycle. Animals were allowed normal chow diet (Rodent chow #5001, PharmaServ, Framingham, Mass.) and water ad libitum. After one week acclimation, animals were randomized to vehicle (saline) or treatment groups. Animals were fasted overnight (16 hrs) and orally dosed with vehicle or compounds. Thirty minutes after compound administration, animals were given a weighed amount of food, and food intake was recorded 30 minutes, 1 h, 2 h, 4 h, 7 h and 24 h after refeeding.

[2] = target: T2, human 5-hydroxytryptamine-2C (h5-HT2C) receptor (Homo sapiens, UniProt P28335); assay: 5-HT2C binding: [125I]DOI displacement in membranes of transfected CHO cells; conditions: read-out: 5-HT2C Binding Ki avg
T2 construct: expressed in transfected cells; host or cells: CHO (Chinese Hamster Ovary) cells; membranes
T2 sequence (P28335 33-458): T1 sequence (P28335 33-458)

[3] = 10 mpk oral, 0.5 hour after refeeding
[4] = 10 mpk oral, 2 hours after refeeding
[5] = 10 mpk oral, 4 hours after refeeding
[6] = 30 mpk oral, 0.5 hour after refeeding
[7] = 30 mpk oral, 2 hours after refeeding
[8] = 30 mpk oral, 4 hours after refeeding
[9] = 50 mpk oral, 0.5 hour after refeeding
[10] = 50 mpk oral, 2 hours after refeeding
[11] = 50 mpk oral, 4 hours after refeeding

Compound | Emax (human 5-HT2C receptor) | EC50 (human 5-HT2C receptor) | Ki [2] | other results
NCC1COc2cccc(-c3ccccc3Cl)c2O1 (stereo not drawn) [Compound I-1, {[8-(2-Chlorophenyl)-2,3-dihydro-1,4-benzodioxin-2-yl]methyl}amine] | 60% | < 100 nM | < 50 nM | % Reduction food intake (vs vehicle) [1, 3]: 4 ± 8%; % Reduction food intake (vs vehicle) [1, 4]: 6 ± 8%; % Reduction food intake (vs vehicle) [1, 5]: 16 ± 8%; % Reduction food intake (vs vehicle) [1, 6]: 60 ± 12%; % Reduction food intake (vs vehicle) [1, 7]: 40 ± 8%; % Reduction food intake (vs vehicle) [1, 8]: 42 ± 5%; % Reduction food intake (vs vehicle) [1, 9]: 74 ± 17%; % Reduction food intake (vs vehicle) [1, 10]: 55 ± 13%; % Reduction food intake (vs vehicle) [1, 11]: 48 ± 13%
NCC1COc2cccc(-c3ccccc3C(F)(F)F)c2O1 (stereo not drawn) [Compound I-4, ({8-[2-(Trifluoromethyl)phenyl]-2,3-dihydro-1,4-benzodioxin-2-yl}methyl)amine] | 70% | < 100 nM | < 50 nM | % Reduction food intake (vs vehicle) [1, 3]: 9 ± 6%; % Reduction food intake (vs vehicle) [1, 4]: 5 ± 8%; % Reduction food intake (vs vehicle) [1, 5]: 2 ± 7%; % Reduction food intake (vs vehicle) [1, 6]: 29 ± 7%; % Reduction food intake (vs vehicle) [1, 7]: 14 ± 8%; % Reduction food intake (vs vehicle) [1, 8]: 0 ± 16%; % Reduction food intake (vs vehicle) [1, 9]: 56 ± 10%; % Reduction food intake (vs vehicle) [1, 10]: 27 ± 11%; % Reduction food intake (vs vehicle) [1, 11]: 8 ± 14%
Cc1ccccc1-c1cc(Cl)cc2c1O[C@@H](CN)CO2 [Compound I-60, (2S)-[6-Chloro-8-(2-methyl-phenyl)-2,3-dihydro-benzo[1,4]dioxin-2-yl]-methylamine] | 50% | 100 to 500 nM | < 50 nM | 
COc1ccccc1-c1cc(Cl)cc2c1O[C@@H](CN)CO2 [Compound I-61, (2S)-[6-Chloro-8-(2-methoxy-phenyl)-2,3-dihydro-benzo[1,4]dioxin-2-yl]-methylamine] | 50% | 100 to 500 nM | < 50 nM | 
NC[C@H]1COc2cc(Cl)cc(-c3ccccc3C(F)(F)F)c2O1 [Compound I-62, (2S)-[6-Chloro-8-(2-trifluoromethyl-phenyl)-2,3-dihydro-benzo[1,4]dioxin-2-yl]-methylamine] | 60% | 100 to 500 nM | < 50 nM | 
COc1cccc(-c2cc(Cl)cc3c2O[C@@H](CN)CO3)c1OC [Compound I-63, (2S)-[6-Chloro-8-(2,3-dimethoxy-phenyl)-2,3-dihydro-benzo[1,4]dioxin-2-yl]-methyl amine] | 50% | > 500 nM | < 50 nM | 
NC[C@H]1COc2cc(Cl)cc(-c3ccc(Cl)cc3Cl)c2O1 [Compound I-64, (2S)-[6-Chloro-8-(2,4-dichloro-phenyl)-2,3-dihydro-benzo[1,4]dioxin-2-yl]-methyl amine] | 60% | 100 to 500 nM | < 50 nM | 
NC[C@H]1COc2cc(Cl)cc(-c3cc(Cl)ccc3Cl)c2O1 [Compound I-67, (2S)-[6-Chloro-8-(2,5-dichloro-phenyl)-2,3-dihydro-benzo[1,4]dioxin-2-yl]-methyl amine] | 50% | 100 to 500 nM | < 50 nM | 
Cc1cccc(C)c1-c1cc(Cl)cc2c1O[C@@H](CN)CO2 [Compound I-69, (2S)-[6-Chloro-8-(2,6-dimethyl-phenyl)-2,3-dihydro-benzo[1,4]dioxin-2-yl]-methyl amine] | 60% | 100 to 500 nM | < 50 nM | 
NC[C@H]1COc2ccc(Cl)c(-c3ccccc3Cl)c2O1 [Compound I-70, (2S)-[7-Chloro-8-(2-chloro-phenyl)-2,3-dihydro-benzo[1,4]dioxin-2-yl]-methylamine] | 50% | < 100 nM | < 50 nM | 
NC[C@H]1COc2ccc(F)c(-c3ccccc3Cl)c2O1 [Compound I-71, (2S)-[8-(2-Chloro-phenyl)-7-fluoro-2,3-dihydro-benzo[1,4]dioxin-2-yl]-methylamine] | 40% | < 100 nM | < 50 nM | 
COc1ccccc1-c1cc(F)cc2c1OC(CN)O2 (stereo not drawn) [Compound I-76, 1-[6-Fluoro-4-(2-methoxyphenyl)-1,3-benzodioxol-2-yl]methanamine] | 70% | < 100 nM | < 50 nM | 
Cc1ccccc1-c1cc(F)cc2c1OC(CN)O2 (stereo not drawn) [Compound I-80, 1-[4-(2-Methyl-phenyl)-6-fluoro-1,3-benzodioxol-2-yl]methanamine] | 90% | < 100 nM | < 50 nM | 
NCC1Oc2cc(F)cc(-c3cc(Cl)ccc3Cl)c2O1 (stereo not drawn) [Compound I-81, 1-[4-(2,5-Dichloro-phenyl)-6-fluoro-1,3-benzodioxol-2-yl]methanamine] | 80% | < 100 nM | < 50 nM | 
NCC1Oc2cc(F)cc(-c3ccccc3C(F)(F)F)c2O1 (stereo not drawn) [Compound I-82, 1-[4-(2-Trifluoromethyl-phenyl)-6-fluoro-1,3-benzodioxol-2-yl]methanamine] | 70% | < 100 nM | < 50 nM | 
NCC1Oc2cc(F)cc(-c3ccccc3F)c2O1 (stereo not drawn) [Compound I-83, 1-[4-(2-Fluoro-phenyl)-6-fluoro-1,3-benzodioxol-2-yl]methanamine] | 70% | < 100 nM | < 50 nM | 
NCC1Oc2cc(F)cc(-c3ccccc3Cl)c2O1 (stereo not drawn) [Compound I-84, 1-[4-(2-Chloro-phenyl)-6-fluoro-1,3-benzodioxol-2-yl]methanamine] | 80% | < 100 nM | < 50 nM | 
NC[C@H]1Oc2cc(F)cc(-c3c(Cl)cccc3Cl)c2O1 [Compound I-85, 1-[(2S)-4-(2,6-dichlorophenyl)-6-fluoro-1,3-benzodioxol-2-yl]methanamine] | 90% | < 100 nM | < 50 nM | 
NC[C@@H]1Oc2cc(F)cc(-c3c(Cl)cccc3Cl)c2O1 [Compound I-86, 1-[(2R)-4-(2,6-dichlorophenyl)-6-fluoro-1,3-benzodioxol-2-yl]methanamine] | 80% | > 500 nM | < 50 nM | 
CNCC1Oc2cc(F)cc(-c3ccccc3Cl)c2O1 (stereo not drawn) [Compound I-87, 1-[4-(2-Chlorophenyl)-6-fluoro-1,3-benzodioxol-2-yl]-N-methylmethanamine] | 80% | < 100 nM | < 50 nM | 
NCC1Oc2cc(Cl)cc(-c3ccccc3Cl)c2O1 (stereo not drawn) [Compound I-90, [6-Chloro-4-(2-chloro-phenyl)-benzo[1,3]dioxol-2-yl]-methylamine] | 80% | < 100 nM | < 50 nM | 
Cc1ccccc1-c1cc(Cl)cc2c1OC(CN)O2 (stereo not drawn) [Compound I-91, [6-Chloro-4-(2-methyl-phenyl)-benzo[1,3]dioxol-2-yl]-methylamine] | 80% | < 100 nM | < 50 nM | 
NCC1Oc2cc(Cl)cc(-c3ccc(Cl)cc3Cl)c2O1 (stereo not drawn) [Compound I-96, [6-Chloro-4-(2,4-dichloro-phenyl)-benzo[1,3]dioxol-2-yl]-methylamine] | 80% | < 100 nM | < 50 nM | 
NCC1Oc2cc(Cl)cc(-c3cc(Cl)ccc3Cl)c2O1 (stereo not drawn) [Compound I-98, [6-Chloro-4-(2,5-dichloro-phenyl)-benzo[1,3]dioxol-2-yl]-methylamine] | 80% | < 100 nM | < 50 nM | 
